From ChEMBL document CHEMBL3046771, “Synthesis, spectral, and antimicrobial evaluation of some new 8-membered phosphorus heterocyclic compounds” (2011)

Columns and labels:
Format in all cases: functional
Helminthosporium [1] = test: Antifungal activity against Helminthosporium oryzae at 25 ppm by disc diffusion method; parameters: unit not given here
Helminthosporium [2] = test: Antifungal activity against Helminthosporium oryzae at 50 ppm by disc diffusion method; parameters: unit not given here
Helminthosporium [3] = test: Antifungal activity against Helminthosporium oryzae at 100 ppm by disc diffusion method; parameters: unit not given here
Aspergillus niger [4] = test: Antifungal activity against Aspergillus niger at 50 ppm by disk diffusion method; parameters: unit not given here
Aspergillus niger [5] = test: Antifungal activity against Aspergillus niger at 25 ppm by disk diffusion method; parameters: unit not given here
Staphylococcus aureus [6] = test: Antibacterial activity against Staphylococcus aureus at 25 ppm by disk diffusion method; parameters: unit not given here
Aspergillus niger [7] = test: Antifungal activity against Aspergillus niger at 100 ppm by disk diffusion method; parameters: unit not given here
Staphylococcus aureus [8] = test: Antibacterial activity against Staphylococcus aureus at 100 ppm by disk diffusion method; parameters: unit not given here
Staphylococcus aureus [9] = test: Antibacterial activity against Staphylococcus aureus at 50 ppm by disk diffusion method
Escherichia coli [10] = test: Antibacterial activity against Escherichia coli at 25 ppm by disk diffusion method; parameters: unit not given here
Escherichia coli [11] = test: Antibacterial activity against Escherichia coli at 100 ppm by disk diffusion method; parameters: unit not given here
Escherichia coli [12] = test: Antibacterial activity against Escherichia coli at 50 ppm by disk diffusion method; parameters: unit not given here

Compound | inhibition zone (IZ) (Helminthosporium [1]) | inhibition zone (IZ) (Helminthosporium [2]) | inhibition zone (IZ) (Helminthosporium [3]) | inhibition zone (IZ) (Aspergillus niger [4]) | inhibition zone (IZ) (Aspergillus niger [5]) | inhibition zone (IZ) (Staphylococcus aureus [6]) | inhibition zone (IZ) (Aspergillus niger [7]) | inhibition zone (IZ) (Staphylococcus aureus [8]) | inhibition zone (IZ) (Staphylococcus aureus [9]) [%] | inhibition zone (IZ) (Escherichia coli [10]) | inhibition zone (IZ) (Escherichia coli [11]) | inhibition zone (IZ) (Escherichia coli [12])
CCC(C)OCP1(=S)CNc2cccc3cccc(c23)NC1 (centres undefined) | 8 | 12 | 13 | 10 | 9 | 8 | 14 | 13 | 12 | 9 | 14 | 10
[Se]=P1(CBr)CNc2cccc3cccc(c23)NC1 |  | 8 | 9 | 6 | 4 |  | 10 | 9 | 8 | 4 | 12 | 6
CC(NCP1(=[Se])CNc2cccc3cccc(c23)NC1)c1ccccc1 (centres undefined) | 5 | 8 | 9 | 9 | 6 | 5 | 12 | 11 | 9 | 3 | 10 | 5
CCC(CO)NCP1(=[Se])CNc2cccc3cccc(c23)NC1 (centres undefined) | 6 | 9 | 10 | 6 | 4 | 8 | 9 | 10 | 6 | 7 | 19 | 6
CCC(C)OCP1(=[Se])CNc2cccc3cccc(c23)NC1 (centres undefined) | 7 | 10 | 14 | 10 | 8 | 7 | 13 | 14 | 10 | 8 | 13 | 10
CC(Cc1ccccc1)OCP1(=S)CNc2cccc3cccc(c23)NC1 (centres undefined) | 7 | 9 | 10 | 9 | 8 | 7 | 13 | 10 | 9 | 8 | 8 | 9
CC1(C)S[C@@H]2[C@H](NC(=O)Cc3ccccc3)C(=O)N2[C@H]1C(=O)O [PENICILLIN G] |  |  |  |  |  |  |  |  | 8 |  |  | 
CC(NCP1(=S)CNc2cccc3cccc(c23)NC1)c1ccccc1 (centres undefined) | 8 | 7 | 12 | 7 | 6 | 8 | 9 | 12 | 7 | 6 | 11 | 7
CC(Cc1ccccc1)OCP1(=[Se])CNc2cccc3cccc(c23)NC1 (centres undefined) | 7 | 10 | 12 | 8 | 7 | 7 | 10 | 12 | 10 | 7 | 10 | 8
CCC(CO)NCP1(=S)CNc2cccc3cccc(c23)NC1 (centres undefined) | 5 | 9 | 11 | 10 | 8 | 5 | 10 | 11 | 9 | 8 | 10 | 10
S=P1(CBr)CNc2cccc3cccc(c23)NC1 | 9 | 11 | 13 | 5 | 3 | 9 | 9 | 13 | 11 | 3 | 10 | 5
